Reference: article PMC4352194, “Physicochemical and Biological Properties of Oxovanadium(IV), Cobalt(II) and Nickel(II) Complexes with Oxydiacetate Anions” (Biological Trace Element Research, 2014)

Legend:
[1] = Potentiometric titration: stability constants of the complexes; assay type: physicochemical; settings: PT, 298.15 K, aqueous
Procedure: (§1) Potentiometric titrations were performed in a 30-mL thermostated (298.15 ± 0.10 K) cell using the Cerko Lab System microtitration unit fitted with a 5-mL Hamilton’s syringe, a pH combined electrode (Schott–BlueLine 16 pH type) and a self-made measuring cell equipped with a magnetic stirrer. The temperature was controlled using the Lauda E100 circulation thermostat. In aqueous solutions, the electrode was calibrated according to IUPAC recommendations. In binary systems (10–50 % v/v DMSO:H2O), the electrode calibration was performed by the Gran’s method using the GLEE program. For this purpose, the HClO4 solution was titrated with tetrabutylammonium hydroxide (Bu4NOH) solution both at the same mole fraction of organic solvent (10–50 (v/v%) DMSO). The syringe was calibrated by a weight method. The double distilled water of conductivity approximately 0.18 μS/cm was used throughout for the preparation of aqueous solutions. Other reagents used in the experiments were purchased from Sigma-Aldrich. They were as follows: VOSO4 (≥99.99 % trace metals basis), Co(NO3)2·6H2O (ACS reagent, ≥99 %), Ni(NO3)2·6H2O (99.999 %) and 2,2′-oxydiacetic acid (H2ODA, 98 %). All the solutions were prepared immediately before measurements. The compositions of the titrand solutions used in the experiments were as follows: (a) 2 mM Ni^2+ (Co^2+ or VO^2+), 5 mM H2ODA, 5 mM HClO4, (b) 2.5 mM H2ODA (for binary systems). The solutions (Vo = 5.0 mL) were potentiometrically titrated with the standardized 0.098 M NaOH solution or with the standardized 0.025 M Bu4NOH solution (in binary systems) in the pH range from 2.5 to 11.0. The titrant was added to the titrand in increments of 0.01 mL, with a pause of 60 s. Each titration was repeated at least three times in order to check the reproducibility of the data. The stability constants of the complexes were determined using the Hyperquad2008 program. The concentration distribution of various complex species existing in the solution as a function of pH was obtained using the HySS program.
The equilibrium constants defined by Eqs. (1) and (2):1 pM+qL+rH=MpLqHr 2 βpqr=MpLqHr/M^pL^qH^r (where M is VO^2+, Co^2+ or Ni^2+, L denotes the oxydiacetate ion, H is the proton and p, q, r are stoichiometric coefficients for the reaction) were refined by least-squares calculations using the Hyperquad2008 (version 5.2.19) computer program. For the oxovanadium(IV) system, the formation of the hydroxo complexes of VO(IV) were taken into account in the calculations of the stability constants. The following formation constants were taken from the literature and were fixed: logβ 10–1 = −5.94, logβ 20–2 = −6.95 and logβ 10–3 = −18. The equilibrium models presented in Table 2 have given the best fitting of the calculated data to the experimental ones.

[2] = Potentiometric titration: dissociation constants of oxydiacetic acid in DMSO-water; assay type: physicochemical; settings: 298.15 K
Procedure: as §1
To assess the influence of DMSO as a co-solvent on the stability of the complexes, its effect on the dissociation constants of H2ODA was investigated potentiometrically in the first instance. The representative pH-titration curves for oxydiacetic acid at 298.15 K in 0, 30 and 50 % (v/v) DMSO-water binary systems are shown in Fig. 2, whereas the calculated dissociation constants are collected in Table 3. In the calculations, the ionization constants of the solvents, pK s, were taken from the literature.

Bacillus subtilis = assay: Disc diffusion test; assay type: cell-based; settings: B. subtilis, 100 μg/disc
Procedure: (§2) The antimicrobial activity of complex compounds was assessed against Bacillus subtilis, Escherichia coli, Enterococcus faecalis, Pseudomonas aeruginosa, Staphylococcus aureus, Staphylococcus epidermidis (all strains were from the collection of the Department of Molecular Biology, University of Gdańsk). All bacteria were cultured in the Luria-Bertani (LB) broth at 310.15 K in the air with shaking. LB agar plates were prepared by the supplementation of LB broth with the 1.5 % bacteriological agar. Stock solutions of complex compounds were freshly prepared in the LB broth at the concentration of 25 mg/mL. Aliquots of 0.05 mL of bacterial culture at the optical density at 600 nm of 0.1 (inoculum 5 × 10^6 cells per plate) were spread on LB agar plates. Sterile filter paper discs (of 6 mm diameter) were impregnated with solutions of complex compounds prepared in the deionized water at the following amounts: 0.1, 0.2, 0.5 and 1.0 mg per disc and placed on agar plates. After an overnight incubation at 310.15 K, zones of bacterial growth inhibition were measured. Neomycin at the amount of 0.1 mg/disc was used as a control.

Enterococcus faecalis = assay: Disc diffusion test; assay type: cell-based; settings: E. faecalis, 100 μg/disc
Procedure: as §2

Escherichia coli = assay: Disc diffusion test; assay type: cell-based; settings: E. coli, 100 μg/disc
Procedure: as §2

Pseudomonas aeruginosa = assay: Disc diffusion test; assay type: cell-based; settings: P. aeruginosa, 100 μg/disc
Procedure: as §2

Staphylococcus aureus = assay: Disc diffusion test; assay type: cell-based; settings: S. aureus, 100 μg/disc
Procedure: as §2

[3] = system: Staphylococcus epidermidis; assay: Disc diffusion test; assay type: cell-based; settings: S. epidermidis, 100 μg/disc
Procedure: as §2

[4] = set-up: method as in earlier work; settings: fixed in the calculations; cited from earlier work
[5] = set-up: method as in doi:10.1016/j.molstruc.2011.03.036, PMID 23047227; settings: cited from earlier work

With O=C(O)COCC(=O)O [H2ODA, 2,2′-oxydiacetic acid] the “logβ 011 (LH)” value ([1]; fitted in the M = Co^2+ system) was 4.16 (±0.09), the “logβ 012 (LH2)” value ([1]; fitted in the M = Co^2+ system) was 7.26 (±0.06) and the “logβ 011 (LH)” value ([1]; fitted in the M = Ni^2+ system) was 4.12 (±0.01). For the same compound, the “logβ 012 (LH2)” value ([1]; fitted in the M = Ni^2+ system) was 6.97 (±0.01), the “logβ 011 (LH)” value ([1]; fitted in the M = VO^2+ system) was 4.20 (±0.05) and the “logβ 012 (LH2)” value ([1]; fitted in the M = VO^2+ system) was 7.25 (±0.05). The “pK a1 (H2ODA = HODA^− + H^+)” value ([2]; DMSO 0 % v/v) was 2.90 (±0.05), the “pK a2 (HODA^− = ODA^2− + H^+)” value ([2]; DMSO 0 % v/v) was 4.28 (±0.08) and the “pK a1 (H2ODA = HODA^− + H^+)” value ([2]; DMSO 10 % v/v) was 3.11 (±0.04). The “pK a2 (HODA^− = ODA^2− + H^+)” value ([2]; DMSO 10 % v/v) was 4.52 (±0.02), the “pK a1 (H2ODA = HODA^− + H^+)” value ([2]; DMSO 20 % v/v) was 3.28 (±0.02) and the “pK a2 (HODA^− = ODA^2− + H^+)” value ([2]; DMSO 20 % v/v) was 4.69 (±0.02). For the same compound, the “pK a1 (H2ODA = HODA^− + H^+)” value ([2]; DMSO 30 % v/v) was 3.42 (±0.04), the “pK a2 (HODA^− = ODA^2− + H^+)” value ([2]; DMSO 30 % v/v) was 4.91 (±0.02) and the “pK a1 (H2ODA = HODA^− + H^+)” value ([2]; DMSO 40 % v/v) was 3.61 (±0.03). The “pK a2 (HODA^− = ODA^2− + H^+)” value ([2]; DMSO 40 % v/v) was 5.16 (±0.02), the “pK a1 (H2ODA = HODA^− + H^+)” value ([2]; DMSO 50 % v/v) was 3.76 (±0.03) and the “pK a2 (HODA^− = ODA^2− + H^+)” value ([2]; DMSO 50 % v/v) was 5.46 (±0.03).

In the case of NC[C@@H]1O[C@H](O[C@H]2[C@@H](O)[C@H](O[C@@H]3[C@@H](O)[C@H](N)C[C@H](N)[C@H]3O[C@H]3O[C@H](CN)[C@@H](O)[C@H](O)[C@H]3N)O[C@@H]2CO)[C@H](N)[C@@H](O)[C@@H]1O [Neo, Neomycin, reference compound], the “Zone of growth inhibition” value (Bacillus subtilis) is reported as 21 mm, the “Zone of growth inhibition” value (Enterococcus faecalis) is reported as 16 mm and the “Zone of growth inhibition” value (Escherichia coli) is reported as 15 mm. For the same compound, the “Zone of growth inhibition” value (Pseudomonas aeruginosa) was 17 mm, the “Zone of growth inhibition” value (Staphylococcus aureus) was 18 mm and the “Zone of growth inhibition” value [3] was 25 mm.

In the case of [O]=[V+2] [VO(IV)], the “logβ 10–1 (hydroxo complex formation constant)” value [4] is given as −5.94, the “logβ 10–3 (hydroxo complex formation constant)” value [4] is given as −18 and the “logβ 20–2 (hydroxo complex formation constant)” value [4] is given as −6.95.

For Cc1ccncc1.O.O.O.O=C([O-])COCC(=O)[O-].[Cu+2] [[Cu(ODA)(4-pic)(H2O)]∙2H2O], the SOD activity [5] is given as “considerable SOD activity”.

For O.O.O.O.O.O=C([O-])COCC(=O)[O-].[Cu+2].c1ccc(-c2ccccn2)nc1 [[Cu(ODA)(bipy)(H2O)]∙4H2O], the SOD activity [5] is listed as “considerable SOD activity”.
